{"source": "patent US12454675B2", "about": "“Method of increasing protein yield in mammalian cells in serum-free culture medium” (AGENCY FOR SCIENCE, TECHNOLOGY AND RESEARCH, priority 2016, dated 2025)", "key": {"[1]": {"test_system": "CHO-K1 cells", "assay": "Adaptation of CHO-K1 cells into HyQ PF-CHO media with different disaccharides", "type": "cell-based, Chinese Hamster", "conditions": "3.6 g/l sugar", "procedure": "Viable cell density and culture viability were determined by Trypan blue dye exclusion method using Vi-Cell XR Cell Viability Analyzer (Beckman Coulter, Brea, CA) according to manufacturer's instructions. For biochemical and other cell culture parameter analyses, 1 ml of culture sample was centrifuged at 8000 g for 10 minutes to obtain clarified supernatant. […] At each passage during the adaptation process, viable cell density and culture viability before passage and after inoculation into fresh media were determined. […] Osmolality of these culture media were determined to be between 308 and 324 mOsm/kg, well within the range for optimal mammalian cell culture. The viable cell densities and culture viabilities of these cultures at the beginning and end of each passage over a period of 74 days are shown in FIG. 1. […] However, culture viabilities and viable cell densities of the maltose culture started to pick up on Day 14. Proliferation of the cells in maltose culture then maintained over the period of the time studied, while those in the other disaccharides were terminated on Day 31 due to the lack of cell growth and depressed culture viabilities."}, "[2]": {"test_system": "CHO-DG44 cells", "assay": "Disaccharides to support growth of CHO-DG44 cells in HyQ PF-CHO", "type": "cell-based, Chinese Hamster", "conditions": "10 g/l sugar, 22 days", "from_the_text": "(§1) In (A) CHO-K1 cells were cultivated in a serum-free protein-free cell culture medium, HyQ PF-CHO, with 3.6 g/l of different sugars (maltose, sucrose, lactose, trehalose or glucose) as carbohydrate source. The viable cell densities (lined markers) and culture viabilities (marker only) of these cultures at the beginning and end of each passage over a period of 74 days were plotted. Cultures with sucrose, lactose or trehalose were terminated on Day 31 due to the decreased culture viabilities and reduced viable cell densities. The experiment was repeated with a seeding cell density of 1.0×10^6 cells/ml to obtain similar results. In (B) CHO-DG44 cells were cultivated with a seeding cell density of 1.0×10^6 cells/ml in a serum-free protein-free cell culture medium, HyQ PF-CHO, with 10 g/l of different sugars (maltose, sucrose, lactose, trehalose or glucose) as carbohydrate source. The viable cell densities (lined markers) and cell viabilities (marker only) of these cultures at the beginning and end of each passage over a period of 22 days were plotted. In (C) HEK293 cells were cultivated with a seeding cell density of 1.0×10^6 cells/ml in a protein-free chemically defined cell culture medium, PFCDM, with 10 g/l of different sugars (maltose, sucrose, lactose, trehalose or glucose) as carbohydrate source. The viable cell densities (lined markers) and cell viabilities (marker only) of these cultures at the beginning and end of each passage over a period of 22 days were plotted. Cultures with sucrose, lactose or trehalose were terminated on Day 14 due to the decreased culture viabilities and reduced viable cell densities.\nTo determine whether the same approach can be applied on other CHO cell lines, the use of disaccharides to support the growth of CHO-DG44 cells was evaluated. These cells were cultivated with 10 g/l of maltose, sucrose, lactose, trehalose or glucose as energy source in a serum-free protein-free cell culture medium HyQ PF-CHO. The viable cell densities and culture viabilities of these cultures at the beginning and end of each passage over a period of 22 days are shown in FIG. 1B."}, "[3]": {"test_system": "HEK293 cells", "assay": "Disaccharides to support growth of HEK293 cells in PFCDM", "type": "cell-based", "conditions": "10 g/l sugar, seeding 1.0×10^6 cells/ml, 22 days", "from_the_text": "as §1"}, "[4]": {"test_system": "SH87 cells", "assay": "Specific maltose consumption rate, Monod model", "type": "cell-based, Chinese Hamster", "conditions": "non-linear regression", "procedure": "Specific substrate consumption rate (qs) between culture times t1 and t2 was determined by plotting substrate concentration (S) vs IVCD according to Equation 4. −qs=(St2−St1)/IVCD St2=−qs×IVCD+St1 Equation 4\nSpecific substrate consumption rate (qs) was fitted into a Monod model according to Equation 5, where qs_max is the maximum specific substrate consumption rate, S is the substrate concentration, and Ks is the affinity constant. qs=(qs_max×S)/(Ks+S) Equation 5\nTo characterize the maltose metabolism in the maltose supplemented cultures, the specific maltose consumption rates were obtained from plots of maltose concentrations against cumulative integral viable cell densities (IVCD) according to Equation 4. […] Comparing with published specific monosaccharide consumption rates using 3.6 g/l of monosaccharides (Altamirano et al., 2000), the maximum specific maltose consumption rate determined here is similar to the specific consumption rates of fructose (0.21 ng/cell/day) and galactose (0.21 ng/cell/day) while being lower than the measured specific consumption rates of glucose (0.76 ng/cell/day) and mannose (0.88 ng/cell/day). […] While the present inventors noted that these parameters can be more accurately determined in continuous cultures, it may be practically challenging at low maltose concentrations since growth rates will be low."}, "[5]": {"test_system": "CHO-K1 cells", "assay": "CHO-K1 cells in PFCDM with increasing concentration of maltose", "type": "cell-based, Chinese Hamster", "conditions": "maltose-adapted CHO-K1, PFCDM, maltose 10 g/l to 40 g/l", "from_the_text": "CHO-K1 cells adapted to PFCDM with 10 g/L of maltose was cultivated in PFCDM with 10, 20, 30 and 40 g/L maltose in batch shake flask cultures. The cultures were monitored till culture viabilities were lower than 50%, to obtain their (A) Viable cell densities (lined marker) and culture viabilities (marker only), and (B) Osmolality, (C) Glucose, (D) Lactate, (E) Glutamine and (F) Ammonium profiles. […] Even with the higher maltose concentration, lactate concentration was kept at a low level till viability started to drop on Day 6.\nExamining glutamine consumption, while this was slower in the maltose culture compared to the glucose culture (FIG. 2D), it was likely due to the slower growth of the maltose culture. […] This hypothesis is supported by the ammonium production profiles: while the specific ammonium production rate was initially similar for both cultures, that for the glucose culture slowed considerably from Day 2 (FIG. 2G) to attain a final ammonium concentration of 0.14 g/l (FIG. 2E), whereas the specific ammonium production rate of the maltose culture continued at a similar rate till Day 5 to attain a higher final ammonium concentration of 0.20 g/1. […]"}}}
{"compound": "OC[C@H]1O[C@H](O[C@H]2[C@H](O)[C@@H](O)[C@H](O)O[C@@H]2CO)[C@H](O)[C@@H](O)[C@@H]1O", "note": "[maltose]", "values": [{"measurement": "day on which culture viabilities and viable cell densities started to pick up", "setting": "[1]", "value": 14, "unit": "days"}, {"measurement": "proliferation in serum-free protein-free culture medium with the sugar as sugar source", "setting": "[1]; seeding 0.3×10^6 cells/ml, 74 days", "value": "can proliferate"}, {"measurement": "proliferation in serum-free protein-free culture medium with the sugar as sugar source", "setting": "[2]", "value": "can also proliferate"}, {"measurement": "proliferation in serum-free culture medium with the sugar as sugar source", "setting": "[3]", "value": "can proliferate"}, {"measurement": "affinity constant (Ks)", "setting": "[4]", "value": 7.03, "unit": "g/L"}, {"measurement": "maximum specific maltose consumption rate (qs_max)", "setting": "[4]", "value": 0.257, "unit": "ng/cell/day"}, {"measurement": "proliferation with increased concentrations of maltose", "setting": "[5]", "value": "proliferated faster"}]}
